“Also recorded” adds a separate entry of the source.
What was measured:
LXR [1] = test: Corepressor (NCOR2, SMRT2) binding to LXR, CRT, statements across isoforms; type: biochemical; conditions: monoplex CRT, absence of coactivator
LXR [2] = test: Categorization of ligands by CRT/pCRT signature; type: biochemical; conditions: response at 1 µM ligand compared with theoretical signatures
Text: With the knowledge that, in pCRT, corepressors bind to the apo-receptor; whereas coactivator binding requires a ligand-induced conformational change, we can categorize all ligands using their CRT profiles. Ligands induce three LXR conformational ensembles with CoR (destabilizing D, stabilizing S, neutral N) and only two conformations with CoA (stabilizing S, neutral N) (Figure 9 (Table 1)). In categorizing ligands based upon these CRT characteristics, labels are needed.
The category for each ligand is not always identical for LXRα vs. LXRβ. Similarly, the phenotype associated with each classification is isoform dependent. Recruitment of CoA to LXRβ by FA, WA, and PA will activate transcription; whereas, lack of recruitment by SA, HA, and RA will antagonize transcription (Figure 9 (Table 1)). Stabilization of CoA and/or destabilization of CoR bound to LXRα is a derepression mechanism leading to activation/transcription for FA, WA, and RA; whereas partial activation is expected for PA.
To determine which LXR ligands fit with these theoretical CRT signatures, concentration-response curves were interpolated to measure normalized response at 1 µM ligand concentration and plotted as a heat map (Figure 9A).

LXRβ [3] = molecular target: T1, LXRβ (Homo sapiens, UniProt P55055); test: SRC-1 coactivator recruitment to LXRβ, coregulator TR-FRET (CRT); type: biochemical; set-up: The CRT selectivity assay incorporates GST-tagged LXR-LBD; purchased Thermo Fisher Scientific PV4660; conditions: for LXR isoform selectivity from SRC-1 CRT: LXRβ versus LXRα
T1 sequence (P55055 222-460 limits assumed): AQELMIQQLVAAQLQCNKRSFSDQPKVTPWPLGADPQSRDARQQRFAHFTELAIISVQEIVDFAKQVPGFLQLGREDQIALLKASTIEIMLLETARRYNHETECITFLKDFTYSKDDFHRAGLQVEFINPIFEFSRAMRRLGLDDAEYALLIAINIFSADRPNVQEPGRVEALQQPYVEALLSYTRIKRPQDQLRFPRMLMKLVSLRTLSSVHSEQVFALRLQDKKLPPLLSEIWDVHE

LXRα [4] = molecular target: T2, LXRα (Homo sapiens, UniProt Q13133); test: NCOR2 corepressor binding to LXRα, CRT; type: biochemical; set-up: The CRT selectivity assay incorporates GST-tagged LXR-LBD; purchased Thermo Fisher Scientific PV4657; conditions: for activity at 1 µM: ligand 1 µM, interpolated from concentration-response, normalized, heat map Figure 9A, read-out: NCOR2α, relative % activity at 1 μM
T2 sequence (Q13133 209-447 limits assumed): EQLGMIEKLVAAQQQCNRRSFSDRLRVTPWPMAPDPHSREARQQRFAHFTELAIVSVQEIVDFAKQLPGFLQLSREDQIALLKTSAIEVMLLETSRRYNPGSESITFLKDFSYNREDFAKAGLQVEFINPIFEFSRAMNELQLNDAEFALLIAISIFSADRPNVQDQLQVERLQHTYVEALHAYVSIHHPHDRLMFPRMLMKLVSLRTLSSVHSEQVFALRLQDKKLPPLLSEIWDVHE

LXRβ [5] = molecular target: T1, LXRβ; test: NCOR2 corepressor binding to LXRβ, CRT; type: biochemical; set-up: The CRT selectivity assay incorporates GST-tagged LXR-LBD; purchased Thermo Fisher Scientific PV4660; conditions: for activity at 1 µM: ligand 1 µM, interpolated from concentration-response, normalized, heat map Figure 9A, read-out: NCOR2β, relative % activity at 1 μM
LXRα [6] = molecular target: T2, LXRα; test: SMRT2 corepressor binding to LXRα, CRT; type: biochemical; set-up: The CRT selectivity assay incorporates GST-tagged LXR-LBD; purchased Thermo Fisher Scientific PV4657; conditions: ligand 1 µM, interpolated from concentration-response, normalized; heat map Figure 9A; read-out: SMRT2α, relative % activity at 1 μM
LXRβ [7] = molecular target: T1, LXRβ; test: SMRT2 corepressor binding to LXRβ, CRT; type: biochemical; set-up: The CRT selectivity assay incorporates GST-tagged LXR-LBD; purchased Thermo Fisher Scientific PV4660; conditions: ligand 1 µM, interpolated from concentration-response, normalized; heat map Figure 9A; read-out: SMRT2β, relative % activity at 1 μM
[8] = tested on: sterol response element (SRE); test: SRE-luc reporter assay in HepG2 cells; type: cell-based, human
Text: Our phenotypic high-throughput screen (HTS) approach to identify nonlipogenic ABCA1 Inducers (NLAI) originally used counterscreening with a SREBP1c-luciferase reporter (linked to the SREBF1 gene promoter) in human hepatocarcinoma HepG2 cells ([Ben Aissa et al., 2021]). Unwanted lipogenesis is mediated by LXR agonists via direct transcriptional activation and indirectly by the effects of SREBP1c ([Schultz et al., 2000]; [Brown and Goldstein, 1997]). SREBP1c enhances transcription of genes required for synthesis of fatty acids and TG and as the dominant isoform in liver is associated most closely with lipogenesis and TG elevation ([Brown and Goldstein, 1997]). […] Binding of SREBP1c to the sterol response element (SRE) induces transcription of lipogenic genes associated with elevated TG. To better model the lipogenic axis in hepatocytes, we use HepG2 cells stably transfected with a nanoluciferase reporter downstream of a SRE promoter (SRE-luc), activation of which requires SREBP1c maturation.
HepG2 cells were cotransfected with SRE (LDLR)-NlucP SuperPiggyBac Transposon and a separate Transposase plasmid (System Biosciences). Cells were expanded for multiple passages followed by selection with puromycin (1 μg/ml). Stable cells constitutively express GFP allowed for FACS enrichment and/or cell cloning. Initially, stable pools were compared to low expressing and high expressing enriched pools. The optimal pool was selected based on assay performance (Z’) and was grown and maintained as above, with the addition of 1.0 μg/mL of puromycin biweekly.
Cells were split into flasks containing CS medium (EMEM supplemented with 10% charcoal stripped FBS (Gibco A52567-01)) and 1% P/S and grown at 37 °C /5% CO2 for 48 hr before plating. Cells were plated in 384-well, white clear tissue culture plates (Greiner 781098) and allowed to grow at 37 °C /5% CO2 for 24 hr before medium was aspirated and compound dilutions prepared in CS medium were added. Following a 24 hr incubation, the medium was aspirated, and cells were lysed/luminescence quantified using the Nano-Glo Luciferase Assay System (Promega N1130).

ABCA1 = test: ABCA1-luc reporter assay in CCF-STTG1 astrocytoma cells; type: cell-based, human; conditions: for ABCA1 induction response/phenotype in CCF cells: normalized to T0
Text: Astrocytoma CCF-STTG1 cells, stably transfected with an ABCA1-promoter linked to a luciferase response element, provide a model for ABCA1 induction in astrocytes ([Ben Aissa et al., 2021]). […] Apparent inverse agonist activity in cell-based assays can result from ‘true’ inverse agonist recruitment of corepressors or from antagonist activity towards endogenous sterol LXR agonists. Although we use serum-stripped media, antagonism of endogenous LXR agonists cannot be ruled out.
Low passage CCF-STTG1 cells (20,000 cells/well) were seeded in 96-well plates in media containing charcoal-stripped FBS and incubated at 37 °C and 5% CO2 for 24 hr prior to a 24 hr treatment. All compounds were dissolved in DMSO, and final DMSO concentrations never exceeded 1%. After a 24 hr incubation period, add a volume of ONE-GLOEX Reagent that is equal to the volume of culture medium in each well and incubate for 3–5 min on the shaker. The luminescent activity of compounds ([…], 10-fold dilution) was examined using the ONE-GLOEX assay (Promega). […] The assays were performed in duplicates for each concentration, and the EC50 values were determined from non-linear regression analysis of the dose-response curve generated in GraphPad Prism 9.

Hamsters = tested on: Hamsters; set-up: method as in Groot et al., 2005; conditions: ref Groot et al., 2005; cited from earlier work
cynomolgus monkeys = tested on: cynomolgus monkeys; set-up: method as in Groot et al., 2005; conditions: ref Groot et al., 2005; cited from earlier work
HepG2 cells = test: Cell viability in HepG2 cells under SRE-luc conditions; type: cell-based, human; conditions: conditions of SRE-luc measurements
Text: Figure 5. Lipogenic response of HepG2 cells to treatment with liver X receptor (LXR) ligands. […] See Figure 3—figure supplement 1 for biological replicates. […] See Figure 5—figure supplement 1 for full concentration-response curves. Figure 5—figure supplement 1. Response of HepG2 cells to treatment with liver X receptor (LXR) ligands. (A–B) Lipogenic response of HepG2 cells to treatment with liver X receptor (LXR) ligands showing full concentration-response curves for biphenyl compounds shown in Figure 5E–F. (C) Cell viability in HepG2 cells under identical conditions to those used to obtain sterol response element (SRE)-luc data. [drawing 5]

LXRα [9] = molecular target: T2, LXRα; test: SRC-1 coactivator recruitment to LXRα, coregulator TR-FRET (CRT); type: biochemical; set-up: The CRT selectivity assay incorporates GST-tagged LXR-LBD; purchased Thermo Fisher Scientific PV4657; conditions: maximal response relative to T0 (100%)
[10] = tested on: Tg2576 familial Alzheimer’s disease (FAD) mice; set-up: method as in Stachel et al., 2016; conditions: subcutaneous, 3 weeks, 50 mg/kg/day; ref Stachel et al., 2016; cited from earlier work
monkeys = tested on: monkeys; set-up: method as in Stachel et al., 2016; conditions: 20 mg/kg qd p.o., 2 weeks, ref Stachel et al., 2016, cited from earlier work

COc1ccc(NC2=C(c3ccccc3)C(=O)N(Cc3ccccc3)C2=O)cc1 [GSK3987]
Corepressor (NCOR2, SMRT2) displacement or stabilization, across LXR isoforms (LXR [1]): strong agonist responses | CRT/pCRT signature category (LXR [2]): FA (full agonist (FA)) | LXR isoform selectivity from SRC-1 CRT (LXRβ [3]): weakly selective for LXRβ | activity at 1 µM (LXRα [4]): 97.7% | activity at 1 µM (LXRβ [5]): 97.4% | activity at 1 µM (LXRα [6]): 69.9% | activity at 1 µM (LXRβ [7]): 84%

Cc1cc(C)c(S(=O)(=O)N(Cc2ccc(-c3cccc(S(C)(=O)=O)c3)cc2)Cc2ccccc2F)c(C)c1 [BE1218]
SRE activation response/phenotype in HepG2 [8]: partial agonist phenotype in both cell-based assays | Selectivity for ABCA1 induction versus SRE activation (potency correlation outliers) (ABCA1; CCF ABCA1-luc versus HepG2 SRE-luc): selectivity for ABCA1 induction | ABCA1 induction response/phenotype in CCF cells (ABCA1): partial agonist phenotype in both cell-based assays; also recorded: partial agonist response | Corepressor (NCOR2, SMRT2) displacement or stabilization, across LXR isoforms (LXR [1]): ineffective in corepressor displacement from LXRα | LXR isoform selectivity from SRC-1 CRT (LXRβ [3]): most selective LXRβ agonists | activity at 1 µM (LXRα [4]): 100% | activity at 1 µM (LXRβ [5]): 105% | activity at 1 µM (LXRα [6]): 91.8% | activity at 1 µM (LXRβ [7]): 81.6%

C[C@H](CCOc1cccc(CC(=O)O)c1)N(Cc1cccc(C(F)(F)F)c1Cl)CC(c1ccccc1)c1ccccc1 [RGX-104]
Corepressor (NCOR2, SMRT2) displacement or stabilization, across LXR isoforms (LXR [1]): strong agonist responses | Liver TG (Hamsters): significantly increased liver TG | Plasma TG, LDL-C and VLDL-C (Hamsters): dose-dependent increase | Plasma LDL, HDL and TG (cynomolgus monkeys): robust time-dependent increase in TG and LDL | activity at 1 µM (LXRα [4]): 99.8% | Effect on NCOR2 binding to LXRα (LXRα [4]; monoplex CRT, absence of SRC1): displacement of NCOR2 from both LXR isoforms | activity at 1 µM (LXRβ [5]): 103% | Effect on NCOR2 binding to LXRβ (LXRβ [5]; monoplex CRT, absence of SRC1): displacement of NCOR2 from both LXR isoforms | activity at 1 µM (LXRα [6]): 93.4% | activity at 1 µM (LXRβ [7]): 82%

CCOC(=O)Cn1nc(C(F)(F)F)cc1-c1ccc(-c2cccc(S(C)(=O)=O)c2)cc1 [ALX101]
SRE activation response/phenotype in HepG2 [8]: partial agonist of SRE activation | ABCA1 induction response/phenotype in CCF cells (ABCA1): full agonist towards ABCA1 induction | Corepressor (NCOR2, SMRT2) displacement or stabilization, across LXR isoforms (LXR [1]): less effective or ineffective in displacement of corepressors from LXRα | activity at 1 µM (LXRα [4]): 100% | activity at 1 µM (LXRβ [5]): 105% | activity at 1 µM (LXRα [6]): 87.3% | activity at 1 µM (LXRβ [7]): 91.1%

CC(C)C(O)CC[C@@H](C)[C@H]1CC[C@H]2[C@@H]3CC=C4C[C@@H](O)CC[C@]4(C)[C@H]3CC[C@]12C (stereo partly drawn) [24HC, 24-hydroxycholesterol]
HepG2 cell viability/cytotoxicity (HepG2 cells): cytotoxic at higher concentrations | Efficacy profile for SRC-1 recruitment to LXRα (LXRα [9]): partial agonist | LXR isoform selectivity from SRC-1 CRT (LXRβ [3]): nonselective | Efficacy profile for SRC-1 recruitment to LXRβ (LXRβ [3]; maximal response relative to T0 (100%)): partial agonist

CC(C)[C@@](O)(C(=O)N1CCC(C2CCN(c3ccc(C(=O)N(C)C)c(Cl)c3)CC2)CC1)C(F)(F)F [MK9, (R)–2-chloro-4-(1'-(2-hydroxy-3-methyl-2-(trifluoromethyl)butanoyl)-[4,4'-bipiperidin]–1-yl)-N,N-dimethylbenzamide]
SRE activation response/phenotype in HepG2 [8]: activates lipogenesis in HepG2 cells | Corepressor (NCOR2, SMRT2) displacement or stabilization, across LXR isoforms (LXR [1]): less effective or ineffective in displacement of corepressors from LXRα | ABCA1 and apoE protein levels in the brain [10]: Significant increases in ABCA1 and apoE protein levels in the brain | Plasma or liver TG [10]: not accompanied by significant changes in plasma or liver TG | Liver fat content (monkeys; relative to control): no change in liver fat content | Increase in APOE and Aβ in cerebrospinal fluid (CSF) (monkeys): threefold | LXR isoform selectivity from SRC-1 CRT (LXRβ [3]): highly LXRβ-selective; also recorded: most selective LXRβ agonists | activity at 1 µM (LXRα [4]): 95.1% | activity at 1 µM (LXRβ [5]): 103% | activity at 1 µM (LXRα [6]): 87.9% | activity at 1 µM (LXRβ [7]): 87.9%
